In PubChem BioAssay (NCI):
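Briefly, cells in 96-well plates were exposed to five compound concentrations for 48 h, and endpoints were estimated by linear interpolation. TGI is the concentration that stops growth completely.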

How the values were obtained:
Experiment in all cases: growth of human tumour cells (NCI), 48 h
[1] = tested on: HL-60(TB) leukemia
[2] = tested on: SF-539 CNS
[3] = tested on: M14 melanoma
[4] = tested on: HS 578T breast
[5] = tested on: MDA-MB-231 breast
[6] = tested on: UO-31 renal
[7] = tested on: MCF7 breast
[8] = tested on: BT-549 breast
[9] = tested on: IGROV1 ovarian
[10] = tested on: SK-MEL-2 melanoma
[11] = tested on: U251 CNS
[12] = tested on: RXF 393 renal
[13] = tested on: OVCAR-8 ovarian
[14] = tested on: OVCAR-5 ovarian
[15] = tested on: SF-295 CNS
[16] = tested on: 786-0 renal
[17] = tested on: SK-OV-3 ovarian
[18] = tested on: T-47D breast
[19] = tested on: SK-MEL-28 melanoma
[20] = tested on: SF-268 CNS
[21] = tested on: HCT-116 colon
[22] = tested on: OVCAR-4 ovarian
[23] = tested on: UACC-62 melanoma
[24] = tested on: SW-620 colon
[25] = tested on: PC-3 prostate
[26] = tested on: UACC-257 melanoma
[27] = tested on: SK-MEL-5 melanoma
[28] = tested on: MDA-N
[29] = tested on: HCT-15 colon
[30] = tested on: NCI-H226 lung
[31] = tested on: SNB-75 CNS
[32] = tested on: NCI/ADR-RES ovarian
[33] = tested on: SN12C renal
[34] = tested on: MALME-3M melanoma
[35] = tested on: OVCAR-3 ovarian
[36] = tested on: HT29 colon
[37] = tested on: NCI-H23 lung
[38] = tested on: COLO 205 colon
[39] = tested on: CCRF-CEM leukemia
[40] = tested on: MOLT-4 leukemia
[41] = tested on: DU-145 prostate
[42] = tested on: A549 NSCLC
[43] = tested on: ACHN renal
[44] = tested on: TK-10 renal
[45] = tested on: HOP-92 NSCLC
[46] = tested on: HCC-2998 colon
[47] = tested on: HOP-62 NSCLC
[48] = tested on: SR leukemia
[49] = tested on: NCI-H522 lung
[50] = tested on: CAKI-1 renal
[51] = tested on: MDA-MB-435
[52] = tested on: LOX IMVI melanoma
[53] = tested on: KM12 colon
[54] = tested on: NCI-H460 lung
[55] = tested on: EKVX NSCLC
[56] = tested on: RPMI-8226 leukemia
[57] = tested on: SNB-19 CNS
[58] = tested on: A498 renal
[59] = tested on: K-562 leukemia
[60] = tested on: XF 498 CNS
[61] = tested on: LXFL 529 NSCLC
[62] = tested on: DMS 273 small cell lung
[63] = tested on: KM20L2 colon
[64] = tested on: SNB-78 CNS
[65] = tested on: M19-MEL melanoma
[66] = tested on: DLD-1 colon

Compound: COc1cc(CNc2c3ccccc3nc3ccccc23)cc(OC)c1OC
- TGI [1]: > 21.3 µM
- TGI [2]: 15.7 µM
- TGI [3]: 8.76 µM
- TGI [4]: 29.8 µM
- TGI [5]: 23.6 µM
- TGI [6]: 11.5 µM
- TGI [7]: > 32.9 µM
- TGI [8]: 16.2 µM
- TGI [9]: 25.2 µM
- TGI [10]: 5.66 µM
- TGI [11]: 19.5 µM
- TGI [12]: 9.04 µM
- TGI [13]: 14 µM
- TGI [14]: 14.6 µM
- TGI [15]: 14.4 µM
- TGI [16]: 14.3 µM
- TGI [17]: 28.4 µM
- TGI [18]: 41.9 µM
- TGI [19]: 20.2 µM
- TGI [20]: 16.5 µM
- TGI [21]: 11.2 µM
- TGI [22]: 20.3 µM
- TGI [23]: 7.74 µM
- TGI [24]: 10.1 µM
- TGI [25]: 11.9 µM
- TGI [26]: 11.2 µM
- TGI [27]: 7.83 µM
- TGI [28]: 13 µM
- TGI [29]: 14 µM
- TGI [30]: 10.3 µM
- TGI [31]: 13.9 µM
- TGI [32]: 14.2 µM
- TGI [33]: 15.3 µM
- TGI [34]: 12.5 µM
- TGI [35]: 30.2 µM
- TGI [36]: 14.3 µM
- TGI [37]: 18.5 µM
- TGI [38]: 7.14 µM
- TGI [39]: > 23.2 µM
- TGI [40]: > 22 µM
- TGI [41]: > 52.1 µM
- TGI [42]: 12.7 µM
- TGI [43]: 14.4 µM
- TGI [44]: 37.5 µM
- TGI [45]: 16.7 µM
- TGI [46]: 11.9 µM
- TGI [47]: 11.7 µM
- TGI [48]: 7.58 µM
- TGI [49]: 11.6 µM
- TGI [50]: 14.1 µM
- TGI [51]: 12.9 µM
- TGI [52]: 6.75 µM
- TGI [53]: 21.3 µM
- TGI [54]: 8.18 µM
- TGI [55]: 21.4 µM
- TGI [56]: > 27.3 µM
- TGI [57]: 24.3 µM
- TGI [58]: 7.71 µM
- TGI [59]: 2 µM

Compound: COc1ccc2c(c1)CCCc1c-2nc2ccccc2c1N
- TGI [1]: 32.4 µM
- TGI [2]: 24.8 µM
- TGI [3]: 21.1 µM
- TGI [4]: 45.3 µM
- TGI [5]: 19 µM
- TGI [6]: 18.5 µM
- TGI [7]: 24.9 µM
- TGI [8]: 31 µM
- TGI [9]: 28.7 µM
- TGI [10]: 29.1 µM
- TGI [11]: 25.2 µM
- TGI [12]: 18.7 µM
- TGI [13]: 26.8 µM
- TGI [14]: 23.9 µM
- TGI [15]: 23.1 µM
- TGI [16]: 18.5 µM
- TGI [17]: 24.2 µM
- TGI [18]: 31.3 µM
- TGI [19]: 25.5 µM
- TGI [20]: 29.2 µM
- TGI [21]: 18.6 µM
- TGI [22]: 27.3 µM
- TGI [23]: 25.4 µM
- TGI [24]: 29 µM
- TGI [25]: 23.4 µM
- TGI [26]: 9.56 µM
- TGI [27]: 15.1 µM
- TGI [28]: 21.9 µM
- TGI [29]: 26.5 µM
- TGI [30]: 28.4 µM
- TGI [31]: 22.6 µM
- TGI [32]: 33.6 µM
- TGI [33]: 17.9 µM
- TGI [34]: 27.1 µM
- TGI [35]: 27.5 µM
- TGI [36]: 13.7 µM
- TGI [37]: 31.6 µM
- TGI [38]: 3.22 µM
- TGI [39]: 32 µM
- TGI [40]: 66.5 µM
- TGI [41]: 26.1 µM
- TGI [42]: 25.7 µM
- TGI [43]: 29 µM
- TGI [44]: 23.2 µM
- TGI [45]: 18.9 µM
- TGI [46]: 3.34 µM
- TGI [47]: 12.9 µM
- TGI [48]: 6.32 µM
- TGI [49]: 28 µM
- TGI [50]: 26.8 µM
- TGI [51]: 24.8 µM
- TGI [52]: 20.9 µM
- TGI [53]: 30.9 µM
- TGI [54]: 16.9 µM
- TGI [55]: 22.2 µM
- TGI [56]: 27.3 µM
- TGI [57]: 31.8 µM
- TGI [58]: 20.8 µM
- TGI [59]: 58.5 µM

Compound: COC(=O)C(c1ccc(OC)cc1)N1C(=O)[C@@H](NC(=O)c2ccccc2)[C@H]1[C@@H](C)O (stereo not given in full)
- TGI [1]: > 100 µM
- TGI [2]: > 100 µM
- TGI [3]: > 100 µM
- TGI [6]: > 100 µM
- TGI [9]: > 100 µM
- TGI [60]: > 100 µM
- TGI [10]: > 100 µM
- TGI [11]: > 100 µM
- TGI [12]: > 100 µM
- TGI [13]: > 100 µM
- TGI [15]: > 100 µM
- TGI [16]: > 100 µM
- TGI [17]: > 100 µM
- TGI [61]: > 100 µM
- TGI [19]: > 100 µM
- TGI [20]: > 100 µM
- TGI [21]: > 100 µM
- TGI [22]: > 100 µM
- TGI [23]: > 100 µM
- TGI [24]: > 100 µM
- TGI [62]: > 100 µM
- TGI [63]: > 100 µM
- TGI [26]: > 100 µM
- TGI [27]: > 100 µM
- TGI [29]: > 100 µM
- TGI [30]: > 100 µM
- TGI [31]: > 100 µM
- TGI [33]: > 100 µM
- TGI [34]: > 100 µM
- TGI [35]: > 100 µM
- TGI [36]: > 100 µM
- TGI [37]: > 100 µM
- TGI [38]: > 100 µM
- TGI [39]: > 100 µM
- TGI [40]: > 100 µM
- TGI [42]: > 100 µM
- TGI [64]: > 100 µM
- TGI [43]: > 100 µM
- TGI [65]: > 100 µM
- TGI [44]: > 100 µM
- TGI [45]: > 100 µM
- TGI [46]: > 100 µM
- TGI [47]: > 100 µM
- TGI [48]: > 100 µM
- TGI [66]: > 100 µM
- TGI [49]: > 100 µM
- TGI [52]: > 100 µM
- TGI [53]: > 100 µM
- TGI [54]: > 100 µM
- TGI [55]: > 100 µM
- TGI [57]: > 100 µM
- TGI [59]: > 100 µM
